Reference: patent US20220378721A1, “PROTEIN KINASE INHIBITORS AND USE THEREOF FOR TREATMENT OF NEURODEGENERATIVE DISEASES” (Xavier University of Louisiana, priority 2019, published 2022)
Read-outs that look alike come from different tables or passages of the source.

What was measured:
[1] = tested on: tau phosphorylation at Ser202 in HeLa cells; test: Inhibition of tau phosphorylation at serine 202 in HeLa cells expressing full-length Tau; assay type: cell-based; conditions: HeLa cells transfected with full length tau, 10 μM compound; for inhibition of tau phosphorylation of Ser202: pTau/total Tau
Description: FIG. 3A and FIG. 3B show inhibition of Tau phosphorylation by CK1δ inhibitors in HeLa cells. HeLa cervical cancer cells ectopically expressing full-length Tau protein were treated with 10 μM of the indicated compounds. Samples were prepared in triplicate. […] Actin was used as a loading control only and was not used in any later calculations. […] The Y axis reflects the average change in pTau levels divided by total Tau levels for the triplicate experiments for each compound. For normalization purposes, the vehicle control was set to 1.0 and all other values were adjusted accordingly.
For a CK1δ inhibitor to be considered a potential therapeutic for AD, the compound should be able to inhibit the phosphorylation of tau at the specific residues that are known to be phosphorylated by CK1δ. It has been shown that tau phosphorylation at Ser202/Ser205 and Ser396/Ser404 by CK1δ is not dependent on the priming by other protein kinases. Additionally, these phosphorylation sites are among those sites (Ser199, Ser 202, Ser231, Thr205, Ser396 and Ser404) that regulate the microtubule stabilizing function. Based on these evidences, Ser202 was chosen as the representative tan phosphorylation site of this study to understand the efficacy of our CK1δ inhibitors in inhibiting tau phosphorylation.
Inhibition of Tau Phosphorylation. To confirm biological relevance, the compounds identified by the FRET screens as potential CK1δ inhibitors were tested in an in vitro assay for their ability to inhibit the phosphorylation of tau at serine 202, a known target of CK1δ. LH 846, a known inhibitor of CK1δ was used as the positive control. […] In in-vitro tau phosphorylation assay in HeLa cells that were transfected with full length tau, the CK1δ inhibitors indeed lowered the tau phosphorylation levels at Ser202 by 20%-56%. Compounds 8 and 9 inhibited tau phosphorylation of Ser202 by 56% and 55%, respectively when added to HeLa cells that were transfected with and therefore overexpressed tan protein (FIG. 3).

CK1δ = CK1δ (Homo sapiens, UniProt P48730); test: Casein kinase 1δ inhibition assay, Z'-LYTE FRET based (ThermoFisher SelectScreen); assay type: biochemical; conditions: for % Inhibition CK1δ: 10 μM concentration, high-throughput screening
Chain of CK1δ (P48730 whole entry): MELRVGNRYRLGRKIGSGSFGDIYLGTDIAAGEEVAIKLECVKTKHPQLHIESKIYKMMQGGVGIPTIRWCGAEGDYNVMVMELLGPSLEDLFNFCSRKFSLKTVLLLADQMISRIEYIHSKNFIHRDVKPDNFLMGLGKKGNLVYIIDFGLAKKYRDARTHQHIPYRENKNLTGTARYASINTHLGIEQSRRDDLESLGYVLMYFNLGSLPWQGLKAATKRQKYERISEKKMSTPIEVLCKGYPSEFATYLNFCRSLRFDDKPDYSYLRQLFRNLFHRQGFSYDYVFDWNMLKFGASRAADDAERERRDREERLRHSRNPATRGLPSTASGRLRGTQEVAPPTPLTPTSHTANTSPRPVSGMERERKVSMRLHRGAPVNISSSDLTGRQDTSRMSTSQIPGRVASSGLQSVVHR
Description: Casein kinase 1δ Inhibition Assay: An initial high-throughput assay of the 28 commercially purchased compounds and 22 synthesized compounds were conducted at a 10 μM concentration at the ThermoFisher Select Screen facility. […] FIG. 1 sets forth their chemical structures.
These compounds were then subjected to dose response curve determination studies with the same FRET based assays at ThermoFisher Scientific. The IC50 values, defined as the concentration of the compound required to […] by 50%, of the some of the compounds from the screening were measured (Table 2).
(§1) The synthesized molecules from FIG. 5 were then analyzed for the inhibition of CK1δ and CK1ε, using in-vitro kinase inhibition assay. The in-vitro kinase inhibition assays were conducted at the ThermoPisher Select Screen Biochemical Kinase Profiling Service. It is a Z′-LYTE biochemical FRET based fluorescence assay with a coupled enzyme format that has differential sensitivity to phosphorylated and non-phosphorylated peptides upon proteolytic cleavage. An initial high-throughput in-vitro screening assay at a concentration of 10 μM for all of the compounds in FIG. 5.
(§2) Table 4 sets forth the IC50 values of inhibition of CK1δ and CK1ε by some of the compounds from FIG. 5.

CK1ε = CK1ε (Homo sapiens, UniProt P49674); test: In-vitro kinase inhibition assay, Z'-LYTE FRET based (ThermoFisher SelectScreen); assay type: biochemical; conditions: for % Inhibition CK1ε: 10 μM concentration, high-throughput screening; for IC50: 10-point titration, 3-fold dilution from 25 μM (Table 4)
Chain of CK1ε (P49674 whole entry): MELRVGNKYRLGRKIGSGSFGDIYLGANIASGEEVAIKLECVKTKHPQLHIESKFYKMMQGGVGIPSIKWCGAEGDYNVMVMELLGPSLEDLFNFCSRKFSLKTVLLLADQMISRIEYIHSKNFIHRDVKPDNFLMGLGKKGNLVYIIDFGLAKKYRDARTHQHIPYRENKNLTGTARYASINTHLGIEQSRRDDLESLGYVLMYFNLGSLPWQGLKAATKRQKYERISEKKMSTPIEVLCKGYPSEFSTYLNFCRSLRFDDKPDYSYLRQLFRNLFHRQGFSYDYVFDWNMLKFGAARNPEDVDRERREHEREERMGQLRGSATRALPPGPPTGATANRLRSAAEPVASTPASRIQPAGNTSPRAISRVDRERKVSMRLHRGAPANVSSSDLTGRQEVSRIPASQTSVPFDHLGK
Description: as §1, §2

PIM1 = PIM1 (Homo sapiens, UniProt P11309); test: 100 kinase panel assay; assay type: biochemical
Chain of PIM1 (P11309 whole entry): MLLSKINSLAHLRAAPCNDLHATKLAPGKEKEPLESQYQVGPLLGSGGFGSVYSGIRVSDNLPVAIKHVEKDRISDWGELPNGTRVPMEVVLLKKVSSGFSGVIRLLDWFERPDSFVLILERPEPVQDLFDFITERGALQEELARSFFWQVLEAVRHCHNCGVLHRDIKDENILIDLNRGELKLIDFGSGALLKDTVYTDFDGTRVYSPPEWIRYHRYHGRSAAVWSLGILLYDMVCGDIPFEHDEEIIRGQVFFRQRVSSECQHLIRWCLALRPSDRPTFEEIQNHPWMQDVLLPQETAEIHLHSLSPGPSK
Excerpt: (§3) Compound 2 (from FIG. 1) was screened against a panel of 100 kinases to understand the specificity.

PIM3 = PIM3 (Homo sapiens, UniProt Q86V86); test: 100 kinase panel assay; assay type: biochemical
Excerpt: as §3

CSNK1D (CK1δ) = CSNK1D (CK1δ) (Homo sapiens, UniProt P48730); test: 100 kinase panel assay; assay type: biochemical
Chain of CSNK1D (CK1δ) (P48730 whole entry): as the sequence (P48730 whole entry) above
Excerpt: as §3

[2] = dose response, FRET based assay (Table 2), read-out: CK1δ (IC50 μM)
[3] = 10-point titration, 3-fold dilution from 25 μM (Table 4), read-out: IC50 values of inhibition of CK1δ
[4] = 10-point titration, 3-fold dilution from 25 μM (Table 4)

Compound: COc1cccc2c1C(=O)c1c(O)ccc(O)c1C2=O [Compound 5]
- inhibition of tau phosphorylation at Ser202 (in words) [1]: comparable inhibition potency
- inhibition of tau phosphorylation of Ser202 [1]: approximately 43%
- IC50 (CK1δ; [2]): 0.2 µM

Compound: CC(=O)Oc1ccc(O)c2c1C(=O)C=CC2=O [Compound 3]
- IC50 (CK1δ; [2]): 0.2 µM

Compound: CNC(=O)c1ccc2c(c1N)C(=O)c1ccccc1C2=O [Compound 7]
- IC50 (CK1δ; [2]): 19.4 µM

Compound: O=C1C(c2ccccc2)=C(c2ccccc2)C(=O)c2c(O)ccc(O)c21 [Compound 21]
- % Inhibition CK1ε (CK1ε): 14%
- % Inhibition CK1δ (CK1δ): 8%

Compound: CCc1cc(O)c2c(c1)C(=O)C=C(C1=CC(=O)c3cc(CC)cc(O)c3C1=O)C2=O [Compound 26]
- % Inhibition CK1ε (CK1ε): 64%
- % Inhibition CK1δ (CK1δ): 43%

Compound: CC(C)CCc1cc(O)c2c(c1)C(=O)C=C(C1=CC(=O)c3cc(CCC(C)C)cc(O)c3C1=O)C2=O [Compound 28]
- % Inhibition CK1ε (CK1ε): 13%
- % Inhibition CK1δ (CK1δ): 9%

Compound: O=C1C(Cl)=C(Cl)C(=O)c2c(O)c(Cl)cc(O)c21 [Compound 19]
- % Inhibition CK1ε (CK1ε; 10 µM): 88%
- selectivity for CK1ε over CK1δ (CK1ε; from % inhibition at 10 μM): 2 fold
- % Inhibition CK1δ (CK1δ): 42%
- IC50 (CK1δ; [3]): 9.58 µM

Compound: CC(C)(C)OC1CC(O)CC2C(=O)c3c(O)ccc(O)c3C(=O)C12 (stereo not drawn) [Compound 10]
- IC50 (CK1δ; [2]): 10.1 µM

Compound: CC1=C(C)C(=O)c2c(O)c(Cl)cc(O)c2C1=O [Compound 22]
- % Inhibition CK1ε (CK1ε): 39%
- % Inhibition CK1δ (CK1δ): 2%

Compound: O=Cc1cc(O)c2c(c1O)C(=O)C=CC2=O [Compound 14]
- IC50 (CK1δ; [2]): 3.1 µM

Compound: CCCCCCc1cc(O)c2c(c1)C(=O)C=C(C1=CC(=O)c3cc(CCCCCC)cc(O)c3C1=O)C2=O [Compound 30]
- % Inhibition CK1ε (CK1ε): 12%
- % Inhibition CK1δ (CK1δ): 6%

Compound: O=C1C(Cl)=C(Cl)C(=O)c2c(O)ccc(O)c21 [Compound 20]
- % Inhibition CK1ε (CK1ε; 10 µM): 84%
- IC50 (CK1ε): 7520 nM
- % Inhibition CK1δ (CK1δ): 21%
- IC50 values of inhibition of CK1δ (CK1δ; [4]): could not be determined
- IC50 (CK1δ; [3]): > 25 µM

Compound: O=C1C=C(c2ccccc2)C(=O)c2c(O)ccc(O)c21 [Compound 23]
- % Inhibition CK1ε (CK1ε): 60%
- % Inhibition CK1δ (CK1δ): 17%

Compound: O=C1c2ccccc2C(=O)c2c(NCCO)cccc21 [Compound 6]
- IC50 (CK1δ; [2]): 21.2 µM

Compound: O=C1C=C(Br)C(=O)c2c(O)ccc(O)c21 [Compound 24]
- % Inhibition CK1ε (CK1ε; 10 µM): 96%
- IC50 (CK1ε): 2100 nM
- % Inhibition CK1δ (CK1δ): 1%
- IC50 values of inhibition of CK1δ (CK1δ; [4]): could not be determined
- IC50 (CK1δ; [3]): > 25 µM

Compound: CC(C)C(C)OC1CC(=O)CC2C(=O)c3c(O)ccc(O)c3C(=O)C12 (stereo not drawn) [Compound 9]
- inhibition of tau phosphorylation at Ser202 (in words) [1]: comparable inhibition potency
- inhibition of tau phosphorylation of Ser202 [1]: 55%
- IC50 (CK1δ; [2]): 5.8 µM

Compound: CC(O)C1=CC(=O)c2c(O)ccc(O)c2C1=O (stereo not drawn) [Compound 16]
- inhibition of tau phosphorylation at Ser202 (in words) [1]: comparable inhibition potency
- IC50 (CK1δ; [2]): 2.4 µM

Compound: CCCCCc1cc(O)c2c(c1)C(=O)C=C(C1=CC(=O)c3cc(CCCCC)cc(O)c3C1=O)C2=O [Compound 27]
- % Inhibition CK1ε (CK1ε): 13%
- % Inhibition CK1δ (CK1δ): 9%

Compound: CC(C)Cc1cc(O)c2c(c1)C(=O)C=C(C1=CC(=O)c3cc(CC(C)C)cc(O)c3C1=O)C2=O [Compound 29]
- % Inhibition CK1ε (CK1ε): 15%
- % Inhibition CK1δ (CK1δ): 8%

Compound: CC(C)Cc1cc(O)c2c(c1)C(=O)C=CC2=O [Compound 25]
- % Inhibition CK1ε (CK1ε): 48%
- % Inhibition CK1δ (CK1δ): 11%

Compound: Cc1ccc(O)c2c1C(=O)C=CC2=O [Compound 13]
- % Inhibition CK1ε (CK1ε; 10 µM): 98%
- IC50 (CK1ε): 1190 nM
- % Inhibition CK1δ (CK1δ; 10 µM): 85%
- IC50 (CK1δ; [3]): 2.41 µM
- IC50 (CK1δ; [2]): 31.2 µM

Compound: O=C1C(CO)=C(CO)C(=O)c2c(O)ccc(O)c21 [Compound 11]
- IC50 (CK1δ; [2]): 27.2 µM

Compound: COc1cc2cc3c(c(O)c2c(O)c1C=CC(C)C)C(=O)CC(C)(OC(C)=O)C3 (stereo not drawn) [Compound 4]
- IC50 (CK1δ; [2]): 16.1 µM

Compound: O=C1C2=C(C(=O)c3c(O)ccc(O)c31)C(O)C(O)C(O)C2 (stereo not drawn) [Compound 2]
- inhibition of tau phosphorylation at Ser202 (in words) [1]: did not measure up to them
- % Inhibition at 10 μM, PIM1 (PIM1): 66%
- % Inhibition at 10 μM, PIM3 (PIM3): 64%
- % Inhibition at 10 μM, CSNK1D (CSNK1D (CK1δ)): 70%

Compound: Cc1cc(O)c2c(c1O)C(=O)C=CC2=O [Compound 15]
- % Inhibition CK1ε (CK1ε): 58%
- % Inhibition CK1δ (CK1δ): 31%
- IC50 (CK1δ; [2]): 6.3 µM

Compound: O=C1C=CC(=O)c2c(O)c(Cl)cc(O)c21 [Compound 18]
- % Inhibition CK1ε (CK1ε; 10 µM): 90%
- IC50 (CK1ε): 1340 nM
- % Inhibition CK1δ (CK1δ): 13%
- IC50 values of inhibition of CK1δ (CK1δ; [4]): could not be determined
- IC50 (CK1δ; [3]): > 25 µM

Compound: O=C1C=C(CBr)C(=O)c2c(O)ccc(O)c21 [Compound 12]
- inhibition of tau phosphorylation at Ser202 (in words) [1]: comparable inhibition potency
- % Inhibition CK1ε (CK1ε; 10 µM): 101%
- % Inhibition CK1δ (CK1δ; 10 µM): 94%
- IC50 (CK1δ; [3]): 0.72 µM
- IC50 (CK1δ; [2]): 0.7 µM

Compound: CC(C)(C)OC1CC(=O)CC2C(=O)c3cccc(O)c3C(=O)C12 (stereo not drawn) [Compound 8]
- inhibition of tau phosphorylation at Ser202 (in words) [1]: comparable inhibition potency
- inhibition of tau phosphorylation of Ser202 [1]: 56%
- IC50 (CK1δ; [2]): 18.9 µM
